In patent publication US4356119A, “Therapeutically active polypeptides or acid addition salts and a process for producing such compounds” (Nordisk Insulinlaboratorium, priority 1978, dated 1982):
Where a SMILES comes first, the peptide text is derived from it.

Key:
fat cells = test: insulin potentiating effect on glucose metabolism in isolated fat cells; assay type: cell-based; conditions: 50 ng/ml insulin + 0 μg/ml peptide = 100%
From the text: In vitro determination of the insulin potentiating effect of the peptides on the metabolism of glucose has given the following results, the general methods being described elsewhere (3).
All other values are based on this.

Langerhan's islets = test: glucose stimulated insulin secretion from isolated Langerhan's islets; assay type: cell-based; conditions: 10 mM glucose, hydrochlorides
Experimental: In vitro determination of the effect of the peptides on the glucose stimulated insulin secretion was carried out on Langerhan's islets isolated by collagenase technique and preincubated 24 hours at 37° C. Secretion tests were conducted with 10 mM of glucose and three peptide concentrations.
All peptides have been tested in the form of their hydrochlorides together with 10 mM of glucose, and the values are calculated as a percentage of the effect of 10 mM of glucose alone.

[1] = pharmacological dosages; Enk et al. (6); cited from earlier work
[2] = insulin 0 ng/ml, peptide 0.01 μg/ml
[3] = insulin 0 ng/ml, peptide 0.1 μg/ml
[4] = insulin 0 ng/ml, peptide 1 μg/ml
[5] = insulin 0 ng/ml, peptide 10 μg/ml
[6] = insulin 0 ng/ml, peptide 100 μg/ml
[7] = insulin 0.6 ng/ml, peptide 0.01 μg/ml
[8] = insulin 0.6 ng/ml, peptide 0.1 μg/ml
[9] = insulin 0.6 ng/ml, peptide 1 μg/ml
[10] = insulin 0.6 ng/ml, peptide 10 μg/ml
[11] = insulin 0.6 ng/ml, peptide 100 μg/ml
[12] = insulin 50 ng/ml, peptide 0.01 μg/ml
[13] = insulin 50 ng/ml, peptide 0.1 μg/ml
[14] = insulin 50 ng/ml, peptide 1 μg/ml
[15] = insulin 50 ng/ml, peptide 10 μg/ml
[16] = insulin 50 ng/ml, peptide 100 μg/ml

Row | Molecule | glucose metabolism in fat cells (fat cells; [2]) [%] | glucose metabolism in fat cells (fat cells; [3]) [%] | glucose metabolism in fat cells (fat cells; [4]) [%] | glucose metabolism in fat cells (fat cells; [5]) [%] | glucose metabolism in fat cells (fat cells; [6]) [%] | glucose metabolism in fat cells (fat cells; [7]) [%] | glucose metabolism in fat cells (fat cells; [8]) [%] | glucose metabolism in fat cells (fat cells; [9]) [%] | glucose metabolism in fat cells (fat cells; [10]) [%] | glucose metabolism in fat cells (fat cells; [11]) [%] | glucose metabolism in fat cells (fat cells; [12]) [%] | glucose metabolism in fat cells (fat cells; [13]) [%] | glucose metabolism in fat cells (fat cells; [14]) [%] | glucose metabolism in fat cells (fat cells; [15]) [%] | glucose metabolism in fat cells (fat cells; [16]) [%] | glucose stimulated insulin secretion, percentage of the effect of 10 mM of glucose alone (Langerhan's islets) [%] | glucose stimulated insulin secretion, percentage of the effect of 10 mM of glucose alone (Langerhan's islets; peptide 5 mmolar) [%] | glucose stimulated insulin secretion, percentage of the effect of 10 mM of glucose alone (Langerhan's islets; peptide 5 × 10^-2 mmolar) [%] | blood sugar level [1] | secretion of insulin [1]
1 | COC(=O)[C@H](CCCNC(=N)N)NC(=O)[C@H](C)NC(=O)[C@H](CO)NC(=O)[C@@H](N)CC(=O)O [compound 3, asp-ser-ala-arg-OMe, 2HCl] (H-DSAR-OMe) | 8 | 8 | 8 | 8 | 16 | 90 | 85 | 80 | 80 | 100 | 114 | 112 | 108 | 108 | 124 |  |  |  |  | 
2 | COC(=O)[C@H](CCCNC(=N)N)NC(=O)CNC(=O)CNC(=O)CNC(=O)[C@@H](N)CCC(=O)O [compound 6, glugly-gly-gly-arg-OMe, 2HCl] (H-EGGGR-OMe) |  |  |  |  | 10 |  |  |  |  | 89 |  |  |  |  | 121 |  |  |  |  | 
3 | glu-leu-ser-arg-OMe, 2HCl [compound 1] | 22 | 22 | 22 | 22 | 22 | 94 | 90 | 88 | 91 | 108 | 118 | 113 | 112 | 113 | 126 | 59 | 51 | 76 |  | 
4 | glu-leu-ser-arg-leu-arg-OMe, 3HCl [compound 2] | 20 | 20 | 21 | 20 | 15 | 83 | 88 | 86 | 85 | 55 | 114 | 112 | 108 | 112 | 70 | 73 | 113 | 66 |  | 
5 | glu-leu-ser-arg-leu-arg-asp-ser-ala-arg-OMe, 4HCl [compound 4] |  |  |  |  |  |  |  |  |  |  |  |  |  |  |  | 41 | 9 | 96 |  | 
6 | secretin |  |  |  |  |  |  |  |  |  |  |  |  |  |  |  |  |  |  | without affecting the blood sugar level | potentiate secretion of insulin
